Experimental data as given in patent US10294202B2, “Pyrrolidinones as herbicides” (FMC Corporation, priority 2013, dated 2019).
Read-outs that look alike come from different tables or passages of the source.

How the values were obtained:
[1] = tested on: morningglory; experiment: Test A pre-/postemergence herbicide test; assay type: in vivo, Ipomoea spp.; details: for Morningglory plant response rating: Preemergence, visual rating on 0 to 100 scale (0 no effect, 100 complete control)
Outline: (§1)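 Seeds in loam–sand blend received preemergence directed soil spray; separately, plants 2–10 cm at one- to two-leaf stage received postemergence spray, both with test chemicals in non-phytotoxic solvent with surfactant. After ~10 days in greenhouse, injury rated visually against untreated controls, 0 (no effect) to 100 (complete control).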

[2] = tested on: barnyardgrass; experiment: Test A pre-/postemergence herbicide test; assay type: in vivo, Echinochloa crus-galli; details: for Barnyardgrass plant response rating: Preemergence, visual rating on 0 to 100 scale (0 no effect, 100 complete control)
Outline: as §1

[3] = tested on: velvetleaf; experiment: Test A pre-/postemergence herbicide test; assay type: in vivo, Abutilon theophrasti; details: for Velvetleaf plant response rating: Preemergence, visual rating on 0 to 100 scale (0 no effect, 100 complete control)
Outline: as §1

[4] = tested on: pigweed; experiment: Test A pre-/postemergence herbicide test; assay type: in vivo, Amaranthus retroflexus; details: for Pigweed plant response rating: Preemergence, visual rating on 0 to 100 scale (0 no effect, 100 complete control)
Outline: as §1

[5] = tested on: barnyardgrass; experiment: Test B flooded paddy test; assay type: in vivo, Echinochloa crus-galli; details: 250 g ai/ha, Flood; scale of 0 to 100 where 0 is no effect and 100 is complete control
Outline: (§2)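 Visual ratings from 0, meaning no effect, up to 100, meaning complete control, were made by comparison with untreated controls 13 to 15 days after treatment. Test compounds went straight into floodwater standing 3 cm over the soil of pots holding 2-leaf seedlings.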

[6] = tested on: giant foxtail; experiment: Test A pre-/postemergence herbicide test; assay type: in vivo, Setaria faberii; details: for Foxtail, Giant plant response rating: Preemergence, visual rating on 0 to 100 scale (0 no effect, 100 complete control)
Outline: as §1

[7] = tested on: sedge, umbrella; experiment: Test B flooded paddy test; assay type: in vivo, Cyperus difformis; details: 250 g ai/ha, Flood; scale of 0 to 100 where 0 is no effect and 100 is complete control
Outline: as §2

[8] = tested on: crabgrass, large; experiment: Test A pre-/postemergence herbicide test; assay type: in vivo, Digitaria sanguinalis; details: for Crabgrass, Large plant response rating: Preemergence, visual rating on 0 to 100 scale (0 no effect, 100 complete control)
Outline: as §1

[9] = tested on: corn; experiment: Test A pre-/postemergence herbicide test; assay type: in vivo, Zea mays; details: for Corn plant response rating: Preemergence, visual rating on 0 to 100 scale (0 no effect, 100 complete control)
Outline: as §1

[10] = tested on: ducksalad; experiment: Test B flooded paddy test; assay type: in vivo, Heteranthera limosa; details: 250 g ai/ha, Flood; scale of 0 to 100 where 0 is no effect and 100 is complete control
Outline: as §2

[11] = tested on: wheat; experiment: Test A pre-/postemergence herbicide test; assay type: in vivo, Triticum aestivum; details: for Wheat plant response rating: Preemergence, visual rating on 0 to 100 scale (0 no effect, 100 complete control)
Outline: as §1

[12] = tested on: rice; experiment: Test B flooded paddy test; assay type: in vivo, Oryza sativa; details: 250 g ai/ha, Flood; scale of 0 to 100 where 0 is no effect and 100 is complete control
Outline: as §2

[13] = Postemergence, 125 g ai/ha, 0 to 100 scale, 0 no effect, 100 complete control
[14] = Postemergence, 500 g ai/ha, 0 to 100 scale (0 no effect, 100 complete control)
[15] = preemergence, 500 g ai/ha, 0 to 100 scale
[16] = Postemergence, 1000 g ai/ha, 0 to 100 scale (0 no effect, 100 complete control)
[17] = preemergence, 1000 g ai/ha, 0 to 100 scale

O=C1NCC(c2ccc(F)c(Cl)c2)C1C(=O)Nc1ccccc1C(F)(F)F (centres unmarked) [Compound 74, 4-(3-chloro-4-fluorophenyl)-2-oxo-N-[2-(trifluoromethyl)phenyl]-3-pyrrolidinecarboxamide] was tested, and the pest or weed control at 125 g/ha ([1]; Ipomoea, post-emergence, 240 h, Postemergence, 125 g ai/ha, 0 to 100 scale, 0 no effect, 100 complete control, read-out: Plant response rating, Morningglory) was 0%, the pest or weed control at 500 g/ha ([1]; Ipomoea, post-emergence, 240 h, Postemergence, 500 g ai/ha, 0 to 100 scale (0 no effect, 100 complete control), read-out: Plant response rating, Morningglory) was 0% and the pest or weed control at 500 g/ha ([1]; Ipomoea, pre-emergence, 240 h, preemergence, 500 g ai/ha, 0 to 100 scale, read-out: Plant response rating, Morningglory) was 0%. The “Morningglory plant response rating” value ([1]; 125 g ai/ha) was 0, the pest or weed control at 125 g/ha ([2]; Echinochloa crus-galli, post-emergence, 240 h, Postemergence, 125 g ai/ha, 0 to 100 scale, 0 no effect, 100 complete control, read-out: Plant response rating, Barnyardgrass) was 60% and the pest or weed control at 500 g/ha ([2]; Echinochloa crus-galli, post-emergence, 240 h, Postemergence, 500 g ai/ha, 0 to 100 scale (0 no effect, 100 complete control), read-out: Plant response rating, Barnyardgrass) was 80%. For the same molecule, the pest or weed control at 500 g/ha ([2]; Echinochloa crus-galli, pre-emergence, 240 h, preemergence, 500 g ai/ha, 0 to 100 scale (0 no effect, 100 complete control), read-out: Plant response rating, Barnyardgrass) was 90%, the “Barnyardgrass plant response rating” value ([2]; 125 g ai/ha) was 60 and the pest or weed control at 125 g/ha ([3]; Abutilon theophrasti, post-emergence, 240 h, Postemergence, 125 g ai/ha, 0 to 100 scale, 0 no effect, 100 complete control, read-out: Plant response rating, Velvetleaf) was 30%. The pest or weed control at 500 g/ha ([3]; Abutilon theophrasti, post-emergence, 240 h, Postemergence, 500 g ai/ha, 0 to 100 scale (0 no effect, 100 complete control), read-out: Plant response rating, Velvetleaf) was 50%, the pest or weed control at 500 g/ha ([3]; Abutilon theophrasti, pre-emergence, 240 h, preemergence, 500 g ai/ha, 0 to 100 scale, read-out: Plant response rating, Velvetleaf) was 0% and the “Velvetleaf plant response rating” value ([3]; 125 g ai/ha) was 0. It also gave a pest or weed control at 125 g/ha ([4]; Amaranthus retroflexus, post-emergence, 240 h, Postemergence, 125 g ai/ha, 0 to 100 scale, 0 no effect, 100 complete control, read-out: Plant response rating, Pigweed) of 0%, a pest or weed control at 500 g/ha ([4]; Amaranthus retroflexus, post-emergence, 240 h, Postemergence, 500 g ai/ha, 0 to 100 scale (0 no effect, 100 complete control), read-out: Plant response rating, Pigweed) of 0% and a pest or weed control at 500 g/ha ([4]; Amaranthus retroflexus, pre-emergence, 240 h, preemergence, 500 g ai/ha, 0 to 100 scale, read-out: Plant response rating, Pigweed) of 50%. The “Pigweed plant response rating” value ([4]; 125 g ai/ha) was 0, the “Plant response rating, Barnyardgrass” value [5] was 0 and the “Foxtail, Giant plant response rating” value ([6]; 125 g ai/ha) was 90. The pest or weed control at 125 g/ha ([6]; Setaria faberi, post-emergence, 240 h, Postemergence, 125 g ai/ha, 0 to 100 scale, 0 no effect, 100 complete control, read-out: Plant response rating, Foxtail, Giant) was 80%, the pest or weed control at 500 g/ha ([6]; Setaria faberi, post-emergence, 240 h, Postemergence, 500 g ai/ha, 0 to 100 scale (0 no effect, 100 complete control), read-out: Plant response rating, Foxtail, Giant) was 90% and the pest or weed control at 500 g/ha ([6]; Setaria faberi, pre-emergence, 240 h, preemergence, 500 g ai/ha, 0 to 100 scale, read-out: Plant response rating, Foxtail, Giant) was 90%. The “Plant response rating, Sedge, Umbrella” value [7] was 0, the pest or weed control at 125 g/ha ([8]; Digitaria sanguinalis, post-emergence, 240 h, Postemergence, 125 g ai/ha, 0 to 100 scale, 0 no effect, 100 complete control, read-out: Plant response rating, Crabgrass, Large) was 80% and the pest or weed control at 500 g/ha ([8]; Digitaria sanguinalis, post-emergence, 240 h, Postemergence, 500 g ai/ha, 0 to 100 scale (0 no effect, 100 complete control), read-out: Plant response rating, Crabgrass, Large) was 90%. For the same molecule, the pest or weed control at 500 g/ha ([8]; Digitaria sanguinalis, pre-emergence, 240 h, preemergence, 500 g ai/ha, 0 to 100 scale, read-out: Plant response rating, Crabgrass, Large) was 90%, the “Crabgrass, Large plant response rating” value ([8]; 125 g ai/ha) was 90 and the “Corn plant response rating” value ([9]; 125 g ai/ha) was 0. The Corn plant response rating (crop injury, 0 = no effect, 100 = complete kill) at 125 g/ha ([9]; Zea mays, post-emergence, 240 h, Postemergence, 125 g ai/ha, 0 to 100 scale, 0 no effect, 100 complete control) was 0%, the Corn plant response rating (crop injury, 0 = no effect, 100 = complete kill) at 500 g/ha ([9]; Zea mays, post-emergence, 240 h, Postemergence, 500 g ai/ha, 0 to 100 scale (0 no effect, 100 complete control)) was 50% and the Corn plant response rating (crop injury, 0 = no effect, 100 = complete kill) at 500 g/ha ([9]; Zea mays, pre-emergence, 240 h, preemergence, 500 g ai/ha, 0 to 100 scale) was 0%. The “Plant response rating, Ducksalad” value [10] was 90, the “Wheat plant response rating” value ([11]; 125 g ai/ha) was 0 and the plant injury at 125 g/ha ([11]; Triticum aestivum, post-emergence, 240 h, Postemergence, 125 g ai/ha, 0 to 100 scale, 0 no effect, 100 complete control, read-out: Plant response rating, Wheat) was 0%. For the same molecule, the plant injury at 500 g/ha ([11]; Triticum aestivum, post-emergence, 240 h, Postemergence, 500 g ai/ha, 0 to 100 scale (0 no effect, 100 complete control), read-out: Plant response rating, Wheat) was 60%, the plant injury at 500 g/ha ([11]; Triticum aestivum, pre-emergence, 240 h, preemergence, 500 g ai/ha, 0 to 100 scale, read-out: Plant response rating, Wheat) was 0% and the “Plant response rating, Rice” value [12] was 0.

In the case of NC1=NCC(c2ccc(F)c(F)c2)C1C(=O)Nc1ccccc1F (centres unmarked) [Compound 95, 2-amino-4-(3,4-difluorophenyl)-N-(2-fluorophenyl)dihydro-3H-pyrrole-3-carboxamide], the “Plant response rating, Morningglory” value [1, 13] is reported as 0, the “Plant response rating, Morningglory” value [1, 14] is reported as 0 and the “Morningglory plant response rating” value ([1]; 125 g ai/ha) is reported as 0. The “Plant response rating, Morningglory” value [1, 15] was 0, the “Plant response rating, Barnyardgrass” value [2, 13] was 80 and the “Plant response rating, Barnyardgrass” value [2, 14] was 90. The “Barnyardgrass plant response rating” value ([2]; 125 g ai/ha) was 60, the “Plant response rating, Barnyardgrass” value ([2]; preemergence, 500 g ai/ha, 0 to 100 scale (0 no effect, 100 complete control)) was 90 and the “Plant response rating, Velvetleaf” value [3, 13] was 0. The “Plant response rating, Velvetleaf” value [3, 14] was 0, the “Velvetleaf plant response rating” value ([3]; 125 g ai/ha) was 0 and the “Plant response rating, Velvetleaf” value [3, 15] was 0. For the same molecule, the “Plant response rating, Pigweed” value [4, 13] was 0, the “Plant response rating, Pigweed” value [4, 14] was 0 and the “Pigweed plant response rating” value ([4]; 125 g ai/ha) was 0. For the same molecule, the “Plant response rating, Pigweed” value [4, 15] was 0, the “Plant response rating, Barnyardgrass” value [5] was 0 and the “Plant response rating, Foxtail, Giant” value [6, 13] was 70. For the same molecule, the “Plant response rating, Foxtail, Giant” value [6, 14] was 80, the “Foxtail, Giant plant response rating” value ([6]; 125 g ai/ha) was 80 and the “Plant response rating, Foxtail, Giant” value [6, 15] was 90. The “Plant response rating, Sedge, Umbrella” value [7] was 0, the “Plant response rating, Crabgrass, Large” value [8, 13] was 80 and the “Plant response rating, Crabgrass, Large” value [8, 14] was 90. The “Crabgrass, Large plant response rating” value ([8]; 125 g ai/ha) was 90, the “Plant response rating, Crabgrass, Large” value [8, 15] was 90 and the “Plant response rating, Corn” value [9, 13] was 0. For the same molecule, the “Plant response rating, Corn” value [9, 14] was 0, the “Corn plant response rating” value ([9]; 125 g ai/ha) was 0 and the “Plant response rating, Corn” value [9, 15] was 0. The “Plant response rating, Ducksalad” value [10] was 90, the “Plant response rating, Wheat” value [11, 13] was 0 and the “Plant response rating, Wheat” value [11, 14] was 0. For the same molecule, the “Wheat plant response rating” value ([11]; 125 g ai/ha) was 0, the “Plant response rating, Wheat” value [11, 15] was 0 and the “Plant response rating, Rice” value [12] was 0.

CON(C(=O)C1C(=O)NCC1c1ccc(F)c(F)c1)c1ccccc1[N+](=O)[O-] (centres unmarked) [Compound 243] was tested, and the “Plant response rating, Morningglory” value [1, 16] was 0, the “Plant response rating, Morningglory” value [1, 17] was 0 and the “Plant response rating, Barnyardgrass” value [2, 16] was 60. For the same molecule, the “Plant response rating, Barnyardgrass” value ([2]; preemergence, 1000 g ai/ha, 0 to 100 scale (0 no effect, 100 complete control)) was 80, the “Plant response rating, Velvetleaf” value [3, 16] was 0 and the “Plant response rating, Velvetleaf” value [3, 17] was 0. The “Plant response rating, Pigweed” value [4, 16] was 0, the “Plant response rating, Pigweed” value [4, 17] was 0 and the “Plant response rating, Barnyardgrass” value [5] was 0. The “Plant response rating, Foxtail, Giant” value [6, 16] was 20, the “Plant response rating, Foxtail, Giant” value [6, 17] was 90 and the “Plant response rating, Sedge, Umbrella” value [7] was 0. The “Plant response rating, Crabgrass, Large” value [8, 16] was 0, the “Plant response rating, Crabgrass, Large” value [8, 17] was 90 and the “Plant response rating, Corn” value [9, 16] was 0. The “Plant response rating, Corn” value [9, 17] was 0, the “Plant response rating, Ducksalad” value [10] was 0 and the “Plant response rating, Wheat” value [11, 16] was 0. For the same molecule, the “Plant response rating, Wheat” value [11, 17] was 0 and the “Plant response rating, Rice” value [12] was 0.
